Laboratory results: article PMC5054527, “Mechanism of high affinity inhibition of the human urate transporter URAT1” (Scientific Reports, 2016)
Numbering of substitutions follows the chain as printed. Where two headings read alike, the source gives them in different places.

Tests used:
Assay in all cases: URAT1 uric acid transport activity assay
Assay type in all cases: cell-based
[1] = target: T1, r-L18V rURAT1 point mutant (Rattus norvegicus, UniProt Q3ZAV1, L18V)
T1 sequence (Q3ZAV1 1-553 L18V): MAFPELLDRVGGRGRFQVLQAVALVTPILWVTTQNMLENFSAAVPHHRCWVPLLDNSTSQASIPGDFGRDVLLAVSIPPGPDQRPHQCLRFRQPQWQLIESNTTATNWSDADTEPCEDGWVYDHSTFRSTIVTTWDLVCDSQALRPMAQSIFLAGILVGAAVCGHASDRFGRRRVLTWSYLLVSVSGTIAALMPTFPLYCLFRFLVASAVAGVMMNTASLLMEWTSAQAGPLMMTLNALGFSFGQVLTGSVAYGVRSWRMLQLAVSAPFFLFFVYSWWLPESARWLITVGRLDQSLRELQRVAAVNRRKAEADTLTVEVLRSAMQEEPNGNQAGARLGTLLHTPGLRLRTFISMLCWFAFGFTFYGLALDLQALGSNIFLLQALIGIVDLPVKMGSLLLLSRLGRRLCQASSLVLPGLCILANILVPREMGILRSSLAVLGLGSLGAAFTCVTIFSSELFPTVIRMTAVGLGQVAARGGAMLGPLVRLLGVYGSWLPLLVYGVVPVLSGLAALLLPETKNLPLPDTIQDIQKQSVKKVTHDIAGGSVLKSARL
How it was run: (§1)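 Readout: 14C-uric acid uptake (100 μM, 10 min) in cells transiently transfected one day earlier with mutant rURAT1. Serially diluted inhibitors were added 5 min before substrate. Triplicate points, four-parameter logistic fit for IC50.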

[2] = target: T2, r-V474M rURAT1 point mutant (Rattus norvegicus, UniProt Q3ZAV1, V474M)
T2 construct: expressed in transfected cells; host or cells: HEK-293T
T2 sequence (Q3ZAV1 1-553 V474M): T1 sequence (Q3ZAV1 1-553 L18V) with V18L, V474M
How it was run: as §1

[3] = target: T3, r-V22M rURAT1 point mutant (Rattus norvegicus, UniProt Q3ZAV1, V22M)
T3 sequence (Q3ZAV1 1-553 V22M): T1 sequence (Q3ZAV1 1-553 L18V) with V18L, V22M
How it was run: as §1

## CCc1oc2ccccc2c1C(=O)c1cc(Br)c(O)c(Br)c1 [benzbromarone]
[1]
  IC50: 24 ± 3.1 µM
[2]
  IC50: 17 ± 2.2 µM
[3]
  IC50: 20 ± 2.7 µM

## O=C1C(CC[S+]([O-])c2ccccc2)C(=O)N(c2ccccc2)N1c1ccccc1 (stereo not drawn) [sulfinpyrazone]
[1]; r-L18V, HEPES pH 7.3, 100 μM 14C-uric acid, read-out: IC50 (uric acid transport)
  IC50: 971 ± 89 µM
[2]; r-V474M, HEPES pH 7.3, 100 μM 14C-uric acid, read-out: IC50 (uric acid transport)
  IC50: 732 ± 102 µM
[3]; r-V22M, HEPES pH 7.3, 100 μM 14C-uric acid, read-out: IC50 (uric acid transport)
  IC50: 762 ± 177 µM

## O=C(O)CSc1nnc(Br)n1-c1ccc(C2CC2)c2ccccc12 [lesinurad, 2-((5-bromo-4-(4-cyclopropylnaphthalen-1-yl)-4H-1,2,4-triazol-3-yl)thio)acetic acid]
[1]; r-L18V, MES pH 5.5, 100 μM 14C-uric acid, read-out: IC50 (uric acid transport)
  IC50: 78 ± 6.6 µM
[2]; r-V474M, MES pH 5.5, 100 μM 14C-uric acid, read-out: IC50 (uric acid transport)
  IC50: 84 ± 3.2 µM
[3]; r-V22M, MES pH 5.5, 100 μM 14C-uric acid, read-out: IC50 (uric acid transport)
  IC50: 74 ± 8.9 µM
